Measurements from patent US12187721B2, “Protein tyrosine phosphatase inhibitors” (Array BioPharma Inc., priority 2018, dated 2025).
Where two headings read alike, the source gives them in different places.

Target: T1, full-length SHP2 (His6-tagged SHP2(2-527)) (Homo sapiens, UniProt Q06124)
T1 construct: His6-tagged SHP2(2-527); His6; made in house; host or cells: E. coli
Assay: SHP2 Enzymatic Assay (fluorescence intensity kinetic assay, DiFMUP hydrolysis)
Type: biochemical
How it was run: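 1 nM His6-SHP2(2-527), activated by 1 μM bis-phosphopeptide, hydrolysed 50 μM DiFMUP in 25 mM HEPES pH 7.4 with 1 mM DTT, 50 mM KCl and 2% DMSO. DiFMU fluorescence (Ex 355/Em 460 nm) was read kinetically for 15 min at ambient temperature.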

[1] = full-length SHP2 with 1 μM activating peptide, 50 μM DiFMUP, single assay or mean of multiple assays, read-out: Biological Example 1 IC50

T1 sequence (Q06124 2-527): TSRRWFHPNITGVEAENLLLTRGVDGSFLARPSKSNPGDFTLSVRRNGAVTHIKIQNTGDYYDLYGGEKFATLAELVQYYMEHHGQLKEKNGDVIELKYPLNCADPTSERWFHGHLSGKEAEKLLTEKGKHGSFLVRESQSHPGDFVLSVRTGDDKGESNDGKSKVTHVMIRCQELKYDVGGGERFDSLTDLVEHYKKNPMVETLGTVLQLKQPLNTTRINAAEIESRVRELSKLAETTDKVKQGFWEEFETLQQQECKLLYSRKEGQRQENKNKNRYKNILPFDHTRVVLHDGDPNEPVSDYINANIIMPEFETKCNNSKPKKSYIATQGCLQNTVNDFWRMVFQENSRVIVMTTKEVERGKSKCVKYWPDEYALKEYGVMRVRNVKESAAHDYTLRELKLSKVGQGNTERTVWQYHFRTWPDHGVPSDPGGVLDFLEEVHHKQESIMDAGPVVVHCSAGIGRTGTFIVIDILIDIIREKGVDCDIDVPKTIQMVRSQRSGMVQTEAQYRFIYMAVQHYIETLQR

`C[C@@H]1OCC2(CCN(c3cnc4nc(Sc5ccnc6c5CCC6O)ccc4n3)CC2)[C@@H]1N` (stereo partly drawn) [Example 157, 4-((2-((3S,4S)-4-amino-3-methyl-2-oxa-8-azaspiro[4.5]decan-8-yl)pyrido[2,3-b]pyrazin-6-yl)thio)-6,7-dihydro-5H-cyclopenta[b]pyridin-7-ol] showed an IC50 of 282 nM.

Molecule `Nc1nccc(Sc2ccc3nc(N4CC5CCCC(N)C5C4)cnc3n2)c1Cl` (centres unmarked) [Example 99, 2-(6-((2-amino-3-chloropyridin-4-yl)thio)pyrido[2,3-b]pyrazin-2-yl)octahydro-1H-isoindol-4-amine] has an IC50 of 157 nM.

For `CN(C)C1C[C@@H]2CC[C@@H](C1)N2c1cnc2nc(Sc3ccnc(N)c3Cl)ccc2n1` (stereo partly drawn) [Example 92, (1R,3s,5S)-8-(6-((2-amino-3-chloropyridin-4-yl)thio)pyrido[2,3-b]pyrazin-2-yl)-N,N-dimethyl-8-azabicyclo[3.2.1]octan-3-amine], the IC50 was 66 nM.

With `CC1(N)CCN(c2cnc3nc(-c4cccc5ccncc45)ccc3n2)CC1` [Example 50, 1-(6-(isoquinolin-8-yl)pyrido[2,3-b]pyrazin-2-yl)-4-methylpiperidin-4-amine] the IC50 was 9000 nM.

In the case of `COc1nc(N)cc(Sc2ccc3nc(N4CCC5(CC4)Cc4ccccc4[C@H]5N)cnc3n2)c1Cl` [Example 171, (S)-1′-(6-((6-amino-3-chloro-2-methoxypyridin-4-yl)thio)pyrido[2,3-b]pyrazin-2-yl)-1,3-dihydrospiro[indene-2,4′-piperidin]-1-amine], the IC50 is reported as 56 nM.

Work on `CC1(N)CCN(c2cnc3nc(Sc4cccn5nccc45)ccc3n2)CC1` [Example 36, 4-methyl-1-(6-(pyrazolo[1,5-a]pyridin-4-ylthio)pyrido[2,3-b]pyrazin-2-yl)piperidin-4-amine] yielded an IC50 [1] of 400 nM.

Work on `Nc1nccc(Sc2ccc3nc(N4[C@@H]5CCC[C@H]4CC(N)C5)cnc3n2)c1Cl` (stereo partly drawn) [Example 56, (1R,5S)-9-(6-((2-amino-3-chloropyridin-4-yl)thio)pyrido[2,3-b]pyrazin-2-yl)-9-azabicyclo[3.3.1]nonan-3-amine] yielded an IC50 of 42 nM.

In the case of `CC1(N)CCN(c2cnc3nc(Nc4cccc(Cl)c4Cl)ccc3n2)CC1` [Example 17, 2-(4-amino-4-methylpiperidin-1-yl)-N-(2,3-dichlorophenyl)pyrido[2,3-b]pyrazin-6-amine], the IC50 is reported as 870 nM.

Work on `C[C@@]1(N)CCCN(c2cnc3nc(Sc4ccnc(N)c4Cl)ccc3n2)CC1` (single isomer, unassigned) [Example 74] yielded an IC50 of 42 nM.

Work on `CC1(N)CCN(c2cnc3nc(-c4cccc5ccccc45)ccc3n2)CC1` [Example 38, 4-methyl-1-(6-(naphthalen-1-yl)pyrido[2,3-b]pyrazin-2-yl)piperidin-4-amine] yielded an IC50 [1] of 290 nM.

With `CC1(N)CCN(c2cnc3cc(-c4cccc(Cl)c4Cl)ccc3n2)CC1` [Example 22, 1-(6-(2,3-dichlorophenyl)quinoxalin-2-yl)-4-methylpiperidin-4-amine] the IC50 [1] was 700 nM.

`Cc1cccc2c1CC1(CCN(c3cnc4nc(Sc5ccnc(N)c5Cl)ccc4n3)CC1)[C@@H]2N` [Example 126, (S)-1′-(6-((2-amino-3-chloropyridin-4-yl)thio)pyrido[2,3-b]pyrazin-2-yl)-4-methyl-1,3-dihydrospiro[indene-2,4′-piperidin]-1-amine] gave an IC50 of 30 nM.

`CC1(N)CCN(c2cnc3nc(Sc4cccc(C#N)c4Cl)ccc3n2)CC1` [Example 35, 3-((2-(4-amino-4-methylpiperidin-1-yl)pyrido[2,3-b]pyrazin-6-yl)thio)-2-chlorobenzonitrile] showed an IC50 [1] of 270 nM.

With `CC1(N)CCN(c2cnc3nc(Cc4cccc(Cl)c4Cl)ccc3n2)CC1` [Example 10, 1-(6-(2,3-dichlorobenzyl)pyrido[2,3-b]pyrazin-2-yl)-4-methylpiperidin-4-amine] the IC50 was 2000 nM.

With `Nc1nccc(Sc2ccc3nc(N4CCC5(CC4)Cc4ncc(F)cc4[C@@H]5N)cnc3n2)c1Cl` (single isomer, unassigned) [Example 118] the IC50 was 45 nM.

With `Nc1nccc(Sc2ccc3nc(N4CC5(Cc6ccccc6[C@@H]5N)C4)cnc3n2)c1Cl` [Example 164, (S)-1-(6-((2-amino-3-chloropyridin-4-yl)thio)pyrido[2,3-b]pyrazin-2-yl)-1′,3′-dihydrospiro[azetidine-3,2′-inden]-1′-amine] the IC50 was 203 nM.

`Nc1nccc(Sc2ccc3nc(N4C[C@@H]5CC[C@H]4CN5)cnc3n2)c1Cl` [Example 208, 4-((2-((1S,4S)-2,5-diazabicyclo[2.2.2]octan-2-yl)pyrido[2,3-b]pyrazin-6-yl)thio)-3-chloropyridin-2-amine] was tested, and the IC50 was 67 nM.

`Nc1nccc(Sc2ccc3nc(N4CCC5NCC5C4)cnc3n2)c1Cl` (centres unmarked) [Example 103, 4-((2-(3,7-diazabicyclo[4.2.0]octan-3-yl)pyrido[2,3-b]pyrazin-6-yl)thio)-3-chloropyridin-2-amine] gave an IC50 of 79 nM.

For `NCC1(F)CCN(c2cnc3nc(Sc4cccc(Cl)c4Cl)ccc3n2)CC1` [Example 212, (1-(6-((2,3-dichlorophenyl)thio)pyrido[2,3-b]pyrazin-2-yl)-4-fluoropiperidin-4-yl)methanamine], the IC50 was 197 nM.

For `Cc1ccc2c(c1)[C@H](N)C1(CCN(c3cnc4nc(Sc5ccnc(N)c5Cl)ccc4n3)CC1)C2` [Example 179, (R)-1′-(6-((2-amino-3-chloropyridin-4-yl)thio)pyrido[2,3-b]pyrazin-2-yl)-6-methyl-1,3-dihydrospiro[indene-2,4′-piperidin]-1-amine], the IC50 was 80 nM.

Molecule `Nc1nccc(Sc2ccc3nc(N4CCC(N)(C(F)(F)F)CC4)cnc3n2)c1Cl` [Example 104, 4-((2-(4-amino-4-(trifluoromethyl)piperidin-1-yl)pyrido[2,3-b]pyrazin-6-yl)thio)-3-chloropyridin-2-amine] has an IC50 of 3350 nM.

Molecule `CC1(CN)CCN(c2cnc3cc(-c4cccc(Cl)c4Cl)ccc3n2)CC1` [Example 23, (1-(6-(2,3-dichlorophenyl)quinoxalin-2-yl)-4-methylpiperidin-4-yl)methanamine] has an IC50 of 2500 nM.

`N#Cc1ccc2ncc(Sc3ccc4nc(N5CCC6(CC5)Cc5ccccc5[C@H]6N)cnc4n3)n2c1` [Example 172, (S)-3-((2-(1-amino-1,3-dihydrospiro[indene-2,4′-piperidin]-1′-yl)pyrido[2,3-b]pyrazin-6-yl)thio)imidazo[1,2-a]pyridine-6-carbonitrile] gave an IC50 of 112 nM.

In the case of `C[C@@H]1OCC2(CCN(c3cnc4nc(-c5cccc(Cl)c5Cl)ccc4n3)CC2)[C@@H]1N` [Example 39, (3S,4S)-8-(6-(2,3-dichlorophenyl)pyrido[2,3-b]pyrazin-2-yl)-3-methyl-2-oxa-8-azaspiro[4.5]decan-4-amine], the IC50 is reported as 320 nM.

For `C[C@@H]1OCC2(CCN(c3cnc4nc(Sc5ccnc(Cl)c5Cl)ccc4n3)CC2)[C@@H]1N` [Example 177, (3S,4S)-8-(6-((2,3-dichloropyridin-4-yl)thio)pyrido[2,3-b]pyrazin-2-yl)-3-methyl-2-oxa-8-azaspiro[4.5]decan-4-amine], the IC50 was 220 nM.

For `N[C@@H]1CCCC12CCN(c1cnc3nc(Sc4cccc(Cl)c4Cl)ccc3n1)CC2` [Example 8, (R)-8-(6-((2,3-dichlorophenyl)thio)pyrido[2,3-b]pyrazin-2-yl)-8-azaspiro[4.5]decan-1-amine], the IC50 was 59 nM.

With `NCC1CN(c2cnc3nc(Sc4cccc(Cl)c4Cl)ccc3n2)CCO1` (centres unmarked) [Example 63, (4-(6-((2,3-dichlorophenyl)thio)pyrido[2,3-b]pyrazin-2-yl)morpholin-2-yl)methanamine] the IC50 was 280 nM.

Work on `Nc1nccc(Sc2ccc3nc(N4CCC5(CC4)c4ccccc4[C@@H]5N)cnc3n2)c1Cl` [Example 166, (R)-1′-(6-((2-amino-3-chloropyridin-4-yl)thio)pyrido[2,3-b]pyrazin-2-yl)spiro[bicyclo[4.2.0]octane-7,4′-piperidine]-1(6),2,4-trien-8-amine] yielded an IC50 of 3990 nM.

`C[C@@H]1OCC2(CCN(c3cnc4nc(Sc5ccncc5C(F)(F)F)ccc4n3)CC2)[C@@H]1N` [Example 188, (3S,4S)-3-methyl-8-(6-((3-(trifluoromethyl)pyridin-4-yl)thio)pyrido[2,3-b]pyrazin-2-yl)-2-oxa-8-azaspiro[4.5]decan-4-amine] gave an IC50 of 151 nM.

`Nc1nccc(Sc2ccc3nc(N4CCC(N)(CO)CC4)cnc3n2)c1Cl` [Example 43, (4-amino-1-(6-((2-amino-3-chloropyridin-4-yl)thio)pyrido[2,3-b]pyrazin-2-yl)piperidin-4-yl)methanol] was tested, and the IC50 was 100 nM.

`C[C@@H]1OCC2(CCN(c3cnc4nc(Sc5ccnc(N)c5C(F)(F)F)ccc4n3)CC2)[C@@H]1N` [Example 136, (3S,4S)-8-(6-((2-amino-3-(trifluoromethyl)pyridin-4-yl)thio)pyrido[2,3-b]pyrazin-2-yl)-3-methyl-2-oxa-8-azaspiro[4.5]decan-4-amine] was tested, and the IC50 was 160 nM.

Molecule `Cc1ccc2c(n1)CC1(CCN(c3cnc4nc(Sc5ccnc(N)c5Cl)ccc4n3)CC1)[C@H]2N` [Example 113, (R)-1′-(6-((2-amino-3-chloropyridin-4-yl)thio)pyrido[2,3-b]pyrazin-2-yl)-2-methyl-5,7-dihydrospiro[cyclopenta[b]pyridine-6,4′-piperidin]-5-amine] has an IC50 of 53 nM.

In the case of `COc1nccc(Sc2ccc3nc(N4CCC(N)(CO)CC4)cnc3n2)c1Cl` [Example 44, (4-amino-1-(6-((3-chloro-2-methoxypyridin-4-yl)thio)pyrido[2,3-b]pyrazin-2-yl)piperidin-4-yl)methanol], the IC50 is reported as 120 nM.

`CNc1nccc(Sc2ccc3nc(N4CCC[C@@](C)(N)CC4)cnc3n2)c1Cl` (single isomer, unassigned) [Example 148] was tested, and the IC50 was 93 nM.

With `NCC1CN(c2cnc3nc(Sc4ccnc(N)c4Cl)ccc3n2)C1` [Example 85, 4-((2-(3-(aminomethyl)azetidin-1-yl)pyrido[2,3-b]pyrazin-6-yl)thio)-3-chloropyridin-2-amine] the IC50 was 481 nM.
